Assay results: patent US11357817B2, “Immunoproteasome inhibitor” (The Regents of the University of California, priority 2017, dated 2022)

Legend:
HepG2 cells = assay: HepG2 cytotoxicity assay; assay type: cell-based; details: Homo sapiens
Procedure: The liver-stage and HepG2 toxicity assays were performed as previously reported (35). Briefly, HepG2-A16-CD81EGFP, human hepatocarcinoma HepG2 cells stably transformed to express the tetraspanin CD81 receptor (36, 37) and thus susceptible to P. berghei infection, were cultured at 37° C. in 5% CO2 in DMEM (Life Technologies, Calif.) supplemented with 10% FBS, 0.29 mg/ml glutamine, 100 unit penicillin and 100 μg/ml streptomycin. For both the P. berghei-luciferase and HepG2 cytotoxicity assays, 3×10^3 of the HepG2-A16-CD81EGFP cells in 5 μl of assay medium (DMEM without Phenol Red (Life Technologies, Calif.), 5% FBS, and 5× Pen Strep Glutamine (Life Technologies, Calif.)) at concentration 6×10^5 cells/ml were seeded in 1536-well plates (Greiner BioOne white solid bottom custom GNF mold) 20-26 hours prior to the actual infection. 18 hours prior to infection, 50 nl of compound in DMSO (0.5% final DMSO concentration per well) were transferred with Acoustic Transfer System (ATS) (Biosero) into the assay plates. Atovaquone (12-point serial dilution starting at 10 μM) and Puromycin (12-point serial dilution starting at 10 μM) were used as positive controls for Pb. liver stage assay and HepG2 cytotoxicity respectively. 0.5% DMSO was used as negative control for the both assays.
An. stephensi mosquitoes, infected with P. berghei-luciferase, were provided by the New York University Insectary. P. berghei-luciferase sporozoites were freshly dissected from the infected A. stephensi mosquito salivary glands, filtered twice through a 20 μm nylon net filter using Steriflip Vacuum-Driven Filtration System (Millipore), counted in a hemocytometer, and then adjusted to final concentration 200 sporozoites per μl in the assay media. […] The HepG2-A16-CD81EGFP cell designated for toxicity studies were left uninfected, with 5 ul of additional assay media added to each well to maintain equal concentrations of compounds with P. berghei-luciferase infected plates. After incubation at 37° C. for 48 hours the exoerythrocytic growth and HepG2-A16-CD81EGFP cell viability were quantified by a bioluminescence measurement.
The HepG2 cytotoxicity was assessed by removing the media through an inverted spin of the plates at 150 g for 30 s and addition of 2 μL of CellTiterGlo reagent (Promega diluted 1:2 with deionized water) per well using the MicroFlo liquid handler (BioTek). Immediately after addition of the luminescence reagent, the plates were vortexed for 10 s and read with an EnVision Multilabel reader (PerkinElmer). IC50 values were obtained as above.

P. falciparum Dd2 = P. falciparum Dd2 asexual blood stage SYBR Green I compound sensitivity assay; assay type: cell-based, Plasmodium falciparum; details: for Selectivity Index: P. falciparum activity versus HepG2 activity; for IC50: asexual blood stage, 72 hour SYBR green assay
Procedure: P. falciparum Dd2 strain parasites were cultured under standard conditions (31), using RPMI media supplemented with 0.05 mg/ml gentamycin, 0.014 mg/mL hypoxanthine (prepared fresh), 38.4 mM HEPES, 0.2% Sodium Bicarbonate, 3.4 mM Sodium Hydroxide, 0.05% O+ Human Serum (Denatured at […] for 40 min and From Interstate Blood Bank, Memphis, Tenn.) and 0.0025% Albumax). Human O+ whole blood was obtained from TSRI blood bank (La Jolla, Calif.). Leukocyte-free erythrocytes are stored at 50% hematocrit in RPMI-1640 screening media (as above, but without O+ human serum and with 2× albumax concentration) at 4° C. for one to three weeks before experimental use. Cultures were monitored every one to two days via Giemsa-stained thin smears.
Compound susceptibility was measured using the malaria SYBR Green I-based fluorescence assay (32). Asynchronous P. falciparum parasites (Dd2 strain) were cultured in standard conditions before being plated for the assays. Each compound was tested over 72 hours in technical duplicates on a twelve-point concentration curve prepared by three-fold dilution from 6.7 μM to 0.11 nM. At least three independent experiments were carried out for IC50 determination. Artemisinin and chloroquine were used as controls. IC50 values were obtained using normalized fluorescence intensity from SYBR green I and analyzed via non-linear variable slope four-parameter regression curve-fitting model in Prism 6 (GraphPad Software Inc).

[1] = Plasmodium falciparum, DD2, 72 h

Row | Compound | IC50 (P. falciparum Dd2; [1]) | IC50 (P. falciparum Dd2; listed as 3) | IC50 (P. falciparum Dd2; listed as 20) | IC50 (HepG2 cells) | Selectivity Index (P. falciparum Dd2) | Selectivity Index (P. falciparum Dd2; listed as 3) | Selectivity Index (P. falciparum Dd2; listed as 20)
1 | CCCCCC(=O)NC(Cc1ccc(N)cc1)C(=O)N[C@@H](Cc1ccc(N)cc1)C(=O)N[C@@H](CC(C)C)C(=O)[C@@]1(C)CO1 (stereo in doubt) [Analog 12, N—((R)-3-(4-aminophenyl)-1-(((S)-3-(4-aminophenyl)-1-(((S)-4-methyl-1-((R)-2-methyloxiran-2-yl)-1-oxopentan-2-yl)amino)-1-oxopropan-2-yl)amino)-1-oxopropan-2-yl)hexanamide] | 59.6 ± 15.4 nM | – | – | 0.91 ± 0.25 nM | 0.02 | – | –
2 | CCCCCC(=O)NC(Cc1ccc(N)cc1)C(=O)N[C@@H](Cc1ccc(N)cc1)C(=O)N[C@@H](Cc1ccccc1)C(=O)[C@@]1(C)CO1 (stereo in doubt) [Analog 13, N—((R)-3-(4-aminophenyl)-1-(((S)-3-(4-aminophenyl)-1-(((S)-1-((R)-2-methyloxiran-2-yl)-1-oxo-3-phenylpropan-2-yl)amino)-1-oxopropan-2-yl)amino)-1-oxopropan-2-yl)hexanamide] | 68.2 ± 15.4 nM | – | – | 952 ± 275 nM | 13.96 | – | –
3 | CCCCCC(=O)NC(Cc1ccc(NC(=O)OC(C)(C)C)cc1)C(=O)N[C@@H](Cc1ccc(NC(=O)OC(C)(C)C)cc1)C(=O)N[C@@H](CC(C)C)C(=O)[C@@]1(C)CO1 (stereo in doubt) [Analog 14, tert-butyl (4-((R)-3-(((S)-3-(4-((tert-butoxycarbonyl)amino)phenyl)-1-(((S)-4-methyl-1-((R)-2-methyloxiran-2-yl)-1-oxopentan-2-yl)amino)-1-oxopropan-2-yl)amino)-2-hexanamido-3-oxopropyl)phenyl)carbamate] | 13.5 ± 4.69 nM | – | – | 118 ± 21.7 nM | 8.74 | – | –
4 | CCCCCC(=O)NC(Cc1ccc(NC(=O)OC(C)(C)C)cc1)C(=O)N[C@@H](Cc1ccc(NC(=O)OC(C)(C)C)cc1)C(=O)N[C@@H](Cc1ccccc1)C(=O)[C@@]1(C)CO1 (stereo in doubt) [Analog 15, tert-butyl (4-((R)-3-(((S)-3-(4-((tert-butoxycarbonyl)amino)phenyl)-1-(((S)-1-((R)-2-methyloxiran-2-yl)-1-oxo-3-phenylpropan-2-yl)amino)-1-oxopropan-2-yl)amino)-2-hexanamido-3-oxopropyl)phenyl)carbamate] | 12.2 ± 3.83 nM | – | – | 45.7 ± 15.7 nM | 3.75 | – | –
5 | CCCCCC(=O)N[C@@H](Cc1ccncc1)C(=O)N[C@@H](CCCC)C(=O)N[C@@H](CC(C)C)C(=O)[C@@]1(C)CO1 [Analog 3, (S)-2-((S)-2-hexanamido-3-(pyridin-4-yl)propanamido)-N—((S)-4-methyl-1-((R)-2-methyloxiran-2-yl)-1-oxopentan-2-yl)hexanamide] | – | 3.28 ± 0.674 nM | – | < 0.283 nM | – | 0.09 | –
6 | CCCCCC(=O)N[C@@H](Cc1ccc(N)cc1)C(=O)N[C@@H](CCCC)C(=O)N[C@@H](Cc1ccccc1)C(=O)[C@@]1(C)CO1 [Analog 9, (S)-2-((S)-3-(4-aminophenyl)-2-hexanamidopropanamido)-N—((S)-1-((R)-2-methyloxiran-2-yl)-1-oxo-3-phenylpropan-2-yl)hexanamide] | 81.8 ± 14 nM | – | – | 3410 ± 2310 nM | 41.69 | – | –
7 | CCCCCC(=O)N[C@@H](Cc1c[nH]c2ccccc12)C(=O)N[C@@H](CCCC)C(=O)N[C@@H](Cc1ccccc1)C(=O)[C@@]1(C)CO1 [Analog 11, (S)-2-((S)-2-hexanamido-3-(1H-indol-3-yl)propanamido)-N—((S)-1-((R)-2-methyloxiran-2-yl)-1-oxo-3-phenylpropan-2-yl)hexanamide] | 9.77 ± 1.31 nM | – | – | 6.41 ± 2.26 nM | 0.66 | – | –
8 | CCCCCC(=O)N[C@@H](Cc1ccncc1)C(=O)N[C@@H](CCCC)C(=O)N[C@@H](CC(C)C)C(=O)[C@@]1(C)CO1 [Analog 20] | – | – | 21.8 ± 3.67 nM | – | – | – | 0.01

The remaining compounds from weak to strong by IC50 (P. falciparum Dd2; [1]), led by results:

Row | IC50 (P. falciparum Dd2; [1]) | IC50 (P. falciparum Dd2; listed as 3) | IC50 (P. falciparum Dd2; listed as 20) | Compound | IC50 (HepG2 cells) | Selectivity Index (P. falciparum Dd2) | Selectivity Index (P. falciparum Dd2; listed as 3) | Selectivity Index (P. falciparum Dd2; listed as 20)
9 | 6.7 ± 0.451 nM | – | – | CCCCCC(=O)N[C@@H](Cc1ccccc1)C(=O)N[C@@H](CCCC)C(=O)N[C@@H](Cc1ccccc1)C(=O)[C@@]1(C)CO1 [Analog 7, (S)-2-((S)-2-hexanamido-3-phenylpropanamido)-N—((S)-1-((R)-2-methyloxiran-2-yl)-1-oxo-3-phenylpropan-2-yl)hexanamide] | 30.8 ± 13.7 nM | 4.60 | – | –
10 | 5.99 ± 1.08 nM | – | – | CCCCCC(=O)N[C@@H](Cc1ccc(N)cc1)C(=O)N[C@@H](CCCC)C(=O)N[C@@H](CC(C)C)C(=O)[C@@]1(C)CO1 [Analog 4, (S)-2-((S)-3-(4-aminophenyl)-2-hexanamidopropanamido)-N—((S)-4-methyl-1-((R)-2-methyloxiran-2-yl)-1-oxopentan-2-yl)hexanamide] | 6.32 ± 4.99 nM | 1.06 | – | –
11 | 5.55 ± 0.23 nM | – | – | CCCCCC(=O)N[C@@H](Cc1ccc(NC(=O)OC(C)(C)C)cc1)C(=O)N[C@@H](CCCC)C(=O)N[C@@H](CC(C)C)C(=O)[C@@]1(C)CO1 [Analog 5, tert-butyl (4-((S)-2-hexanamido-3-(((S)-1-(((S)-4-methyl-1-((R)-2-methyloxiran-2-yl)-1-oxopentan-2-yl)amino)-1-oxohexan-2-yl)amino)-3-oxopropyl)phenyl)carbamate] | 80.2 ± 26.5 nM | 14.45 | – | –
12 | 5.45 ± 2.49 nM | – | – | CCCCCC(=O)N[C@@H](Cc1ccc(NC(=O)OC(C)(C)C)cc1)C(=O)N[C@@H](CCCC)C(=O)N[C@@H](Cc1ccccc1)C(=O)[C@@]1(C)CO1 [Analog 10, tert-butyl (4-((S)-2-hexanamido-3-(((S)-1-(((S)-1-((R)-2-methyloxiran-2-yl)-1-oxo-3-phenylpropan-2-yl)amino)-1-oxohexan-2-yl)amino)-3-oxopropyl)phenyl)carbamate] | 478 ± 126 nM | 87.71 | – | –
13 | 4.04 ± 0.759 nM | – | – | CCCCCC(=O)N[C@@H](Cc1ccccc1)C(=O)N[C@@H](CCCC)C(=O)N[C@@H](CC(C)C)C(=O)[C@@]1(C)CO1 [Analog 2, (S)-2-((S)-2-hexanamido-3-phenylpropanamido)-N—((S)-4-methyl-1-((R)-2-methyloxiran-2-yl)-1-oxopentan-2-yl)hexanamide] | 22.7 ± 8.42 nM | 5.62 | – | –
14 | 3.87 ± 1.37 nM | – | – | CCCCCC(=O)N[C@@H](Cc1ccncc1)C(=O)N[C@@H](CCCC)C(=O)N[C@@H](Cc1ccccc1)C(=O)[C@@]1(C)CO1 [Analog 8, (S)-2-((S)-2-hexanamido-3-(pyridin-4-yl)propanamido)-N—((S)-1-((R)-2-methyloxiran-2-yl)-1-oxo-3-phenylpropan-2-yl)hexanamide] | < 0.283 nM | 0.07 | – | –
15 | 3.7 ± 0.144 nM | – | – | CCCCCC(=O)N[C@@H](Cc1c[nH]c2ccccc12)C(=O)N[C@@H](Cc1c[nH]c2ccccc12)C(=O)N[C@@H](CC(C)C)C(=O)[C@@]1(C)CO1 [Analog 16, N—((S)-1-(((S)-3-(1H-indol-3-yl)-1-(((S)-4-methyl-1-((R)-2-methyloxiran-2-yl)-1-oxopentan-2-yl)amino)-1-oxopropan-2-yl)amino)-3-(1H-indol-3-yl)-1-oxopropan-2-yl)hexanamide] | 11.7 ± 3.32 nM | 3.16 | – | –
16 | 3.11 ± 0.026 nM | – | – | CCCCCC(=O)N[C@@H](Cc1c[nH]c2ccccc12)C(=O)N[C@@H](CCCC)C(=O)N[C@@H](CC(C)C)C(=O)[C@@]1(C)CO1 [Analog 6, (S)-2-((S)-2-hexanamido-3-(1H-indol-3-yl)propanamido)-N—((S)-4-methyl-1-((R)-2-methyloxiran-2-yl)-1-oxopentan-2-yl)hexanamide] | 3.27 ± 1.29 nM | 1.05 | – | –
